pIC50: −log10 of the molar value.
Columns and labels:
647V cells = experiment: High throughput proliferation (HTP) assay; assay type: cell-based; settings: Homo sapiens, 647-V, high throughput proliferation; read-out: CREBBP HTP IC50
Procedure, shortened: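 Exponentially growing 647V cells in DMEM with 15% FBS were treated in triplicate with increasing compound concentrations at 37° C, 5% CO2. Viable cell number was read by CellTiter-Glo luminescence on day 7; IC50 in micromolar.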

SW780 bladder cell line = experiment: 7-day proliferation assay, SW780; assay type: cell-based; settings: Homo sapiens, 168 h; SW780, 7 days, CellTiter-Glo
Method: (§1) This example describes methods and materials for 7-day proliferation assay.
(§2) A total of 22 bladder cell lines were used (see table below). Cell lines were cultured in recommended growth media according to supplier.
(§3) Cells were in culture media at a density optimized for a 7-day culture in a final volume of 150 μL per well in white opaque 96-well plates. Cells were allowed to adhere for several hours (4-6 h) then compounds were added with HPD300 Digital Dispenser and placed into the incubator at 37° C., 5% CO2 for 7 days. After 7 days incubation, 100 μL of CellTiter-Glo® Luminescent Cell Viability Assay (Promega-G7573) reagents were added per well. After 20 minutes incubation luminescence was measured in plate reader. IC50 were calculated from a non-linear logarithmic growth curve.
(§4) IC50 values (nanomolar (nM)) are summarized in the table below, which depicts the inhibitory effect of certain compounds in bladder cell lines.

HT1376 bladder cell line = experiment: 7-day proliferation assay, HT1376; assay type: cell-based; settings: Homo sapiens, HT-1376, 168 h; HT1376, 7 days, CellTiter-Glo
Method: as §1, §2, §3, §4

[1] = system: UM-UC-3 bladder cell line; experiment: 7-day proliferation assay, UM-UC-3; assay type: cell-based; settings: Homo sapiens, UMUC3, 168 h; UM-UC-3, 7 days, CellTiter-Glo
Method: as §1, §2, §3, §4

5637 bladder cell line = experiment: 7-day proliferation assay, 5637; assay type: cell-based; settings: 168 h; 5637, 7 days, CellTiter-Glo
Method: as §1, §2, §3, §4

HT1197 bladder cell line = experiment: 7-day proliferation assay, HT1197; assay type: cell-based; settings: Homo sapiens, 168 h; HT1197, 7 days, CellTiter-Glo
Method: as §1, §2, §3, §4

CREBBP (1084-1701) = molecular target: T1, CREBBP (1084-1701) (Homo sapiens, UniProt Q92793); experiment: Biochemical assay for CREBBP (1084-1701), SAMDI; settings: SAMDI, read-out: CREBBP Biochemistry IC50
T1 construct: measured in the following biochemical assay using CREBBP (1084-1701); purchased
T1 sequence (Q92793 1084-1701): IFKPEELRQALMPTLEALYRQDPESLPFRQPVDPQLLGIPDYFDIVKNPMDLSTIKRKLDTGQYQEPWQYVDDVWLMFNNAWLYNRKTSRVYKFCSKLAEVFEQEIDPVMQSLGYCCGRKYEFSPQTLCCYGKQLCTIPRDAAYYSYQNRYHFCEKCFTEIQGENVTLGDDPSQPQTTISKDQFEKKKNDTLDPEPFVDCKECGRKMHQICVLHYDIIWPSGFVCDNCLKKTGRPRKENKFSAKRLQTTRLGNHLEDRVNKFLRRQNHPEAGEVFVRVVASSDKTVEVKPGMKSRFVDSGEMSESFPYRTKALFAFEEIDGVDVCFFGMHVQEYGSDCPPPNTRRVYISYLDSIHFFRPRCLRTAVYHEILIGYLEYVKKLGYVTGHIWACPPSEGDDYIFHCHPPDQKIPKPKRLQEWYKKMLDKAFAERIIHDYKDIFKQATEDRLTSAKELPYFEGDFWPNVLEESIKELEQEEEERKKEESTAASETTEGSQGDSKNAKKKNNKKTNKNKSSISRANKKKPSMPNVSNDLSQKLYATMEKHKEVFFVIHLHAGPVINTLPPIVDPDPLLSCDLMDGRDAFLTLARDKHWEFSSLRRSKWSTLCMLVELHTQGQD
Procedure, shortened: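 CREBBP (1084-1701) preincubated with compound 30 min at RT, then substrate mix (biotin-H3 11-25 K14R/K23R peptide, acetyl-CoA) added for 30 min at RT. Reaction stopped with formic acid, neutralised with sodium bicarbonate. Peptide acetylation read by SAMDI mass spectrometry to derive IC50.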

RT112 bladder cell line = experiment: 7-day proliferation assay, RT112; assay type: cell-based; settings: Homo sapiens, RT-112, 168 h; RT112, 7 days, CellTiter-Glo
Method: as §1, §2, §3, §4

EP300 (P300(1048-1664)) = molecular target: T2, EP300 (P300(1048-1664)) (Homo sapiens, UniProt Q09472); experiment: Biochemical assay for EP300, SAMDI; settings: EP300, SAMDI; read-out: EP300 Biochemistry IC50
T2 construct: P300(1048-1664)
T2 sequence (Q09472 1048-1664): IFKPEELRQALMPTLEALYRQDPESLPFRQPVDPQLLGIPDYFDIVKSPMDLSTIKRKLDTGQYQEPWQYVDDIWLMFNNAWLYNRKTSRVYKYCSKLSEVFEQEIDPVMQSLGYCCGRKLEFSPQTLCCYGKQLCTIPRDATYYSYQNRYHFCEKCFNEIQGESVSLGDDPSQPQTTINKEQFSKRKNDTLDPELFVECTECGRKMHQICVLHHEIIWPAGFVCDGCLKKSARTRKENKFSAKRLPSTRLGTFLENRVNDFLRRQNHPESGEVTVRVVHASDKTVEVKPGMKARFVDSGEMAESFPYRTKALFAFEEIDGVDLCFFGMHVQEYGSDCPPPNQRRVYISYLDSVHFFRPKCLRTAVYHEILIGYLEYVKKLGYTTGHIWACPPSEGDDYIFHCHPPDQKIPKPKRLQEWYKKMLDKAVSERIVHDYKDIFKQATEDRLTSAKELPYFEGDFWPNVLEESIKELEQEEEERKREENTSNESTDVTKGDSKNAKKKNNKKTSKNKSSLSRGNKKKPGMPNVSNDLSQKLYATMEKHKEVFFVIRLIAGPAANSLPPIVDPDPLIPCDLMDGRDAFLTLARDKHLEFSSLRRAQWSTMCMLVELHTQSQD
Excerpt: The following example describes materials and methods relating to a biochemical assay for EP300. IC50 values (micromolar (μM)) are summarized in Table 1, Table 2, and Table 3 under the column labeled: “EP300 Biochemistry IC50 (micromolar).”

SMILES	pIC50 (647V cells)	pIC50 (SW780 bladder cell line)	pIC50 (HT1376 bladder cell line)	pIC50 [1]	pIC50 (5637 bladder cell line)	pIC50 (HT1197 bladder cell line)	pIC50 (CREBBP (1084-1701))	pIC50 (RT112 bladder cell line)	pIC50 (EP300 (P300(1048-1664)))
CCn1ncc(CN(C)C(=O)c2cc(-c3ccc(NCCNC)c(C)n3)nc3ccc(Cl)cc23)c1C [Compound 3, 6-chloro-N-[(1-ethyl-5-methyl-1H-pyrazol-4-yl)methyl]-N-methyl-2-(6-methyl-5-{[2-(methylamino)ethyl]amino}pyridin-2-yl)quinoline-4-carboxamide]	7.57	6.64	5.41	6.10	6.88	6.81	7.68	6.95	8.36
CCn1ncc(CN(C)C(=O)c2cc(-c3ccc(NC4CN(C)C4)c(C)n3)nc3ccc(Cl)cc23)c1C [Compound 480]	7.71	6.90	5.90	6.23	6.83	6.95	7.77	6.70	8.19
CCc1noc(CN(C)C(=O)c2cc(-c3ccc(NCCNC)c(C)n3)nc3ccc(Cl)cc23)c1C [Compound 537]	7.30	6.49	5.56	5.86	6.71	6.46	7.48	6.43	7.66
CCc1ncc(CN(C)C(=O)c2cc(-c3ccc(NCCN(C)C)c(C)n3)nc3ccc(Cl)cc23)n1C [Compound 577]	7.51	6.77	5.68	5.96	6.95	6.63	7.37	7.11	7.73
